In patent publication US20240423995A1, “C-KIT INHIBITORS AND USES FOR TREATING AND PREVENTING INFLAMMATORY CONDITIONS” (GEORGETOWN UNIVERSITY, priority 2023, published 2024):

Columns and labels:
DDR2 = target: T1, DDR2 (Homo sapiens, UniProt Q16832); test: KINASESEEKER competition binding assay, DDR2; settings: minimum 8-point curve, duplicate
T1 construct: purchased Luceome Biotechnologies, LLC
T1 sequence (Q16832 22-855): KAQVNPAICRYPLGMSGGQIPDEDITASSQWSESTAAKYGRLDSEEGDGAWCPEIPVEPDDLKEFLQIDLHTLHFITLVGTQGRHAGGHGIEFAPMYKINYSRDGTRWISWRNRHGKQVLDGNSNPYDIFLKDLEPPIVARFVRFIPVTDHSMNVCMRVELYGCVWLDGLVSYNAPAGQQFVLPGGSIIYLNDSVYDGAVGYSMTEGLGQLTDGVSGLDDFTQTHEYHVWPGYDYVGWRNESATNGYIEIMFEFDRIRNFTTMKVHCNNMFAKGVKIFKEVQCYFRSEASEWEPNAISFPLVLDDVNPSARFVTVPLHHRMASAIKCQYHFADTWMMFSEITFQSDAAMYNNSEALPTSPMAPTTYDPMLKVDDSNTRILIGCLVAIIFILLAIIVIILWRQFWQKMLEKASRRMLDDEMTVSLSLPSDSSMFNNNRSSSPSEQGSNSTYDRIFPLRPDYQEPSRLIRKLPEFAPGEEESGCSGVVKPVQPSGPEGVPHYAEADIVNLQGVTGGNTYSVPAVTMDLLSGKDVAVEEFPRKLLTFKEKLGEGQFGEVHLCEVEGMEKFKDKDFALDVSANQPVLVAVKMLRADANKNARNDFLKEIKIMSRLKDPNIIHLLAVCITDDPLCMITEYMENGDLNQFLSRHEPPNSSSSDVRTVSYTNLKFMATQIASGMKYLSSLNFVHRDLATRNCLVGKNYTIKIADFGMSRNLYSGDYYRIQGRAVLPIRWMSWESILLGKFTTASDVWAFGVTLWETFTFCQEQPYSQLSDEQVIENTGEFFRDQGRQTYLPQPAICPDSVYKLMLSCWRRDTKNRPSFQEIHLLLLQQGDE
Experimental: Kinase assays were performed using KINASESEEKER™ (Luceome Biotechnologies, LLC; Tucson, AZ). KINASESEEKER™ is a homogeneous competition binding assay in which the displacement of an active site-dependent probe by an inhibitor is measured by a change in luminescence signal. Luminescence readout translates into a highly sensitive and robust assay with low background and minimal interference from test compounds. See J. Am. Chem. Soc., 2010, 132, 11727-11735.
Stock solutions of compounds were serially diluted in DMSO to make assay stocks. Prior to initiating IC50 determination, the test compounds were evaluated for false positives against split-luciferase. The compounds were screened against kinases at a minimum of 8 different concentrations in duplicate. For kinase assays, a 24 μL aliquot of lysate containing Cfluc-kinase and Fos-Nfluc was incubated for 2 hours with either 1 μL of DMSO (for no-inhibitor control) or compound solution in DMSO in presence of a kinase specific probe. 80 μL of luciferin assay reagent was added to each solution and luminescence was immediately measured on a luminometer.
The % Inhibition and % Activity Remaining was calculated using the following equation: […]
The % Activity Remaining was plotted against compound concentration and the IC50 was determined for each compound using a minimum 8-point curve.

KIT (V559D, T670I) = target: T2, KIT (V559D, T670I) (Homo sapiens, UniProt P10721, T670I/V559D); test: KINOMEscan competition binding screen, KIT (V559D, T670I); settings: for remaining binding at 10 µM: read-out: % Ctrl @ 10 μM
T2 construct: purchased Eurofins DiscoverX Corporation
T2 sequence (P10721 26-976 V559D/T670I): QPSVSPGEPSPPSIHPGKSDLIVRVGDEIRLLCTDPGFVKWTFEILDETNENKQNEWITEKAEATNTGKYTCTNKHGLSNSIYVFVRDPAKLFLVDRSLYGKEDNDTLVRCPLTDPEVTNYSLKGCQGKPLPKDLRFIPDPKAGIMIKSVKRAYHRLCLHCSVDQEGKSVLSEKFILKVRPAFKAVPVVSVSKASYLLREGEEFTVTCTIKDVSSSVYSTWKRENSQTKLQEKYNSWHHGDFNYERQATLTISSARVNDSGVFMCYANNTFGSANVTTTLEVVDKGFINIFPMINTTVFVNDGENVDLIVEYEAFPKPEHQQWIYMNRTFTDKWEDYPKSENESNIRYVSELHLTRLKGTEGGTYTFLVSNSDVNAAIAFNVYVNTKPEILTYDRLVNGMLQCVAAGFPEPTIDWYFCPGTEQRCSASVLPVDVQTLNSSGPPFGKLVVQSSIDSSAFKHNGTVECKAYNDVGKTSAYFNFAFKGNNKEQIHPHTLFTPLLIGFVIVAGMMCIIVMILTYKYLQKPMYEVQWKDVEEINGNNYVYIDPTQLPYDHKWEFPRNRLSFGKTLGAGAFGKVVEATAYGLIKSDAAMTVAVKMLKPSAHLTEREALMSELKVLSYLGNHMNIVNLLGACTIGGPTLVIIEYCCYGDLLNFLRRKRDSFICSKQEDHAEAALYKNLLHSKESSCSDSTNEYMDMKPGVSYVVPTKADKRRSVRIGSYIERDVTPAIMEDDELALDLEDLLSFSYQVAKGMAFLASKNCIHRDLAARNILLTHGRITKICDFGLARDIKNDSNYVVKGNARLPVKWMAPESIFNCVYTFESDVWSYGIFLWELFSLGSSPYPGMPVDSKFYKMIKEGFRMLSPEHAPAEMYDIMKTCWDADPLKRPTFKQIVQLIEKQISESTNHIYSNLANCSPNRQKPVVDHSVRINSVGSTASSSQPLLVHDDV
Experimental: (§1) The KINOMEscan™ screening platform (Eurofins DiscoverX Corporation, San Diego, USA) was performed using an active site-directed competition binding assay to quantitatively measure interactions between BK40143, BK40197, BK40195, and BK40196 and more than 450 human kinases and disease relevant mutant variants. […] Screening “hits” were identified by measuring the amount of kinase captured in test (BK40143, BK40197, BK40195, and BK40196) versus control samples by using a quantitative and ultra-sensitive qPCR method that detects the associated DNA label. BK40143, BK40197, BK40195, and BK40196 were screened at 10 μM concentration, and results for primary screen binding interactions were reported as ‘% Ctrl’ (POC), where lower numbers indicate stronger hits and calculated as follows:
(§2) [formula] • test compound=BK40143 or BK40197 or BK40195 or BK40196 • negative control=DMSO (100% Ctrl) • positive control=control compound (0% Ctrl)
(§3) Based on screening data of profiled compounds, a proportional relationship between primary screening results and corresponding compound/target affinities can be described as binding constants (Kd values) for the indicated ranges of percent of control (PoC) values, with tighter binding (higher affinity) interactions associated with lower PoC values, and weaker binding (lower affinity) associated with higher PoC values. Briefly, kinase-tagged T7 phage strains were grown in parallel in 24-well blocks in an E. coli host derived from the BL21 strain. E. coli were grown to log-phase and infected with T7 phage from a frozen stock (multiplicity of infection=0.4) and incubated with shaking at 32° C. until lysis (90-150 minutes). The lysates were centrifuged (6,000×g) and filtered ([…]) to remove cell debris. The remaining kinases were produced in HEK-293 cells and subsequently tagged with DNA for qPCR detection. Streptavidin-coated magnetic beads were treated with biotinylated small molecule ligands for 30 minutes at room temperature to generate affinity resins for kinase assays. The liganded beads were blocked with excess biotin and washed with blocking buffer (SeaBlock (Pierce), 1% BSA, 0.05% Tween 20, 1 mM DTT) to remove unbound ligand and to reduce non-specific phage binding. Binding reactions were assembled by combining kinases, liganded affinity beads, and test compounds in 1× binding buffer (20% SeaBlock, 0.17×PBS, 0.05% Tween 20, 6 mM DTT). Test compounds were prepared as 100× stocks in 100% DMSO and directly diluted into the assay. All reactions were performed in polypropylene 384-well plates in a final volume of 0.02 ml. The assay plates were incubated at room temperature with shaking for 1 hour and the affinity beads were washed with wash buffer (1×PBS, 0.05% Tween 20). The beads were then re-suspended in elution buffer (1×PBS, 0.05% Tween 20, 0.5 μM non-biotinylated affinity ligand) and incubated at room temperature with shaking for 30 minutes. The kinase concentration in the eluates was measured by qPCR.

FYN = target: T3, FYN (Homo sapiens, UniProt P06241); test: KINOMEscan competition binding screen, FYN; settings: for remaining binding at 10 µM: read-out: % Ctrl @ 10 μM
T3 construct: purchased Eurofins DiscoverX Corporation
T3 sequence (P06241 whole entry): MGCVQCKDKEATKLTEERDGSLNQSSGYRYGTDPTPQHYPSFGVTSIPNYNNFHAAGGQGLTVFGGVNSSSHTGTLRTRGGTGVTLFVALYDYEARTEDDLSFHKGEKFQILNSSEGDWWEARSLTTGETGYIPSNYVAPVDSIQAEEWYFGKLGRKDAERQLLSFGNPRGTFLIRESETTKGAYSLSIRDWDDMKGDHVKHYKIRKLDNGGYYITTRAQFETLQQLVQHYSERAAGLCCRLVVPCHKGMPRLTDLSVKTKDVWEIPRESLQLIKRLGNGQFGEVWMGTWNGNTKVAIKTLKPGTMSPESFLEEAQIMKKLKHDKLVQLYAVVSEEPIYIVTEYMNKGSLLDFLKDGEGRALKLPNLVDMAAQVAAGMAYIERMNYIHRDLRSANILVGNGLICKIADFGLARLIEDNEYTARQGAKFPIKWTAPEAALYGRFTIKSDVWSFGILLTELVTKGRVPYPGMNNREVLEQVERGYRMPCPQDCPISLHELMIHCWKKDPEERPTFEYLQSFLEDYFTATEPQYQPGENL
Experimental: as §1, §2, §3

| IC50 (DDR2) [nM] | inhibition at 10 µM (KIT (V559D, T670I)) [%] | remaining binding at 10 µM (KIT (V559D, T670I)) [%] | inhibition at 10 µM (FYN) [%] | remaining binding at 10 µM (FYN) [%] | SMILES |
| --- | --- | --- | --- | --- | --- |
| 6030 ± 930 | 81 | 19 | 90 | 10 | Cc1cccc(-c2cc3nccc(Nc4ccccc4)c3s2)c1 [BK40143] |
| 1900 ± 260 | 97.5 | 2.5 | 97.6 | 2.4 | COc1cccc(Nc2ccnc3cc(-c4cccc(C)c4)sc23)c1 [BK40195] |
| 922 ± 130 | 97.6 | 2.4 | 100 | 0 | Cc1cccc(-c2cc3nccc(Nc4cccc(O)c4)c3s2)c1 [BK40196] |

| SMILES | IC50 (DDR2) [nM] | inhibition at 10 µM (KIT (V559D, T670I)) [%] | remaining binding at 10 µM (KIT (V559D, T670I)) [%] | inhibition at 10 µM (FYN) [%] | remaining binding at 10 µM (FYN) [%] |
| --- | --- | --- | --- | --- | --- |
| Cc1cccc(-c2cc3nccc(N4CCOCC4)c3s2)c1 [BK40197] | – | 80 | 20 | 44 | 56 |
